The results in this text go back to US7919480B2, “Polymers having covalently bound antibiotic agents” (Ethicon, Inc., priority 2007, dated 2011).

For the assay, the system named is S. aureus ATCC 6538. Briefly: log reduction assay (Example 4). The class given is cell-based. The method, then: Sample of ONM covalently bound to ORC (ORC-ONM-CV) from example 3 were tested for its in vitro efficacy by log reduction assay. In the log reduction assay, the test articles (squares of about 4.0 mg/piece) were challenged with about 1-2×10e4 CFU bacteria on the surface of the test articles for one hour. To facilitate the test of efficacy on surface of the test articles with covalent bound ONM, the inoculum was delivered in 10 ul/item, the small volume relative to the test articles allowed complete absorption of the inoculum by the test articles such that the inoculum localized on surfaces of the test articles. The inoculum was prepared in 20× potassium phosphate buffer, which maintained pH of the test articles close to neutral. The antimicrobial efficacy of ORC at neutral pH will be minimized, so that the log reduction would indicate the antibacterial efficacy of ONM rather than ORC. After the challenge, the test article was immersed in saline with shaking to remove survival bacteria and the survival bacteria were measured by plate count. The plate counts were conducted in trypticase soy agar and incubated at 37° C. for 24 hours.

Where the note is “log CFU of inoculum − log CFU of treated, 1 h challenge”, POLYQUATERNIUM 1 [ONM control] gave a log reduction of 4.2 log. Also, the “log CFU” value (surviving bacteria after 1 h challenge with about 1-2x10e4 CFU, neutral pH) was 0.3 log CFU.
